Data taken from patent US4398937A, “Selective algaecides for control of cyanochloronta” (The University of Southern Mississippi, priority 1981, dated 1983).
Where two headings read alike, the source gives them in different places.

What was measured:
Format in all cases: cell-based
[1] = system: Chlorella vulgaris; assay: Test tube culture inhibition of Chlorella vulgaris, algal units/ml
Method: (§1) The algae used in this particular study were Chlamydomonas sp., Chlorella vulgaris, Anabaena sp., and Anabaena flos-aquae. Cultures of these algae were obtained, subcultured, and aqueous stocks of algae in 400 ml BBM were prepared and were used in log phase growth to innoculate test cultures.
(§2) The fatty acids which were tested as algal inhibitors were 9, 10-dihydroxystearic acid, linoleic acid, dodecanoic acid, and ricinoleic acid.
(§3) The test procedure involved placing 15 ml of BBM into 25 ml test tubes and innoculating them with 0.2 ml of algal stock solution. Twenty test tubes were innoculated with each algae. Four of these cultures were used with each concentration of each of the fatty acids. Four tubes from each set served as controls. Four concentrations of the fatty acids were used for each alga. The concentrations studied were 0.5 PPM, 1.0 PPM, 5.0 PPM, and 10.0 PPM.
(§4) Algal cultures were incubated under constant light of about 200 foot-candles and at a temperature of 68° F. Bold's Basal Medium (BBM), a modification of Bristol's solution was the medium in which all the cultures were grown. Bold's Basal Medium was prepared as follows:
(§5) Concentrations of fatty acids and the amount of stock solution used to prepare them were as follows:
(§6) Each test tube contained 15 ml sterile BBM. To this was added an aliquot of 0.2 of algal stock solution. Then the appropriate aliquots of warm acid stock solution were added to the appropriate number of culture tubes. These cultures were then incubated 5 days and at that point were counted. The same cultures were also counted after a 12 day growth period.
(§7) Stock solutions of the fatty acids to be tested as algal inhibitors were made from a stock solution of 5% sodium bicarbonate in glass-distilled water. The 5% sodium bicarbonate stock solution was made by dissolving 150 grams of sodium bicarbonate in 3000 ml of glass-distilled water. To insure complete dissolution, the solution was heated and stirred on a magnetic stirrer hot plate. The warm solution was used in preparing the fatty acid stock solutions.
(§8) Quanitative phytoplankton values were determined using the random field method. Filaments, colonies, and aggregations of cells were recorded as algal units. Each unit consisted of approximately 6 cells. Unicellular algae were counted as separate units. Algal counts were made from each of three duplicate cultures. One ml of the algal sample was placed in a Sedgwick-Rafter counting chamber, which is 50 mm long by 20 mm, wide by 1 mm deep. A Wild Heerbrugg, compound microscope with a Whipple grid eyepiece was used to determine quantitative algae values.
(§9) One ml of the algal solution was placed in the counting chamber, and two drops of methyl cellulose were added to minimize the movement of Chlamydomonas sp. Ten random fields were counted and all organisms within the Whipple grid field were enumerated.
(§10) The following formula used to calculate the numbers per milliliter from the field counts: [formula] where: C=number of organisms counted,
(§11) The area of the Whipple grid used was 0.46 mm^2, and the depth of a field was 1 mm. Results of the counts were reported as algal units/ml.

[2] = system: Anabaena sp.; assay: Test tube culture inhibition of Anabaena sp., algal units/ml; conditions: for inhibition of growth at 10 ppm: read-out: reduction of algal units/ml, % of the control
Method: as §1, §2, §3, §4, §5, §6, §7, §8, §9, §10, §11

[3] = system: Chlamydomonas sp.; assay: Test tube culture inhibition of Chlamydomonas sp., algal units/ml
Method: as §1, §2, §3, §4, §5, §6, §7, §8, §9, §10, §11

[4] = system: Anabaena flos-aquae; assay: Test tube culture inhibition of Anabaena flos-aquae, algal units/ml
Method: as §1, §2, §3, §4, §5, §6, §7, §8, §9, §10, §11

`CCCCCCCCCCCC(=O)O` [Dodecanoic Acid, dodecanoic acid] was tested, and the Algal units/ml ([1]; 5 days, 0.5 PPM) was 8913 units/ml, the Algal units/ml ([1]; 5 days, 1.0 PPM) was 11304 units/ml and the Algal units/ml ([1]; 5 days, 5.0 PPM) was 11304 units/ml. The Algal units/ml ([1]; 5 days, 10.0 PPM) was 10435 units/ml, the Algal units/ml ([1]; 12 days, 0.5 PPM) was 217391 units/ml and the Algal units/ml ([1]; 12 days, 1.0 PPM) was 217391 units/ml. For the same compound, the Algal units/ml ([1]; 12 days, 5.0 PPM) was 217391 units/ml, the Algal units/ml ([1]; 12 days, 10.0 PPM) was 217391 units/ml and the inhibition of growth at 10 ppm ([2]; 120 h) was 22.7%. The Algal units/ml ([2]; 5 days, 0.5 PPM) was 40435 units/ml, the Algal units/ml ([2]; 5 days, 1.0 PPM) was 32609 units/ml and the Algal units/ml ([2]; 5 days, 5.0 PPM) was 28261 units/ml. It also gave an Algal units/ml ([2]; 5 days, 10.0 PPM) of 28696 units/ml, an inhibition of growth at 10 ppm ([2]; 288 h) of 22.7% and an Algal units/ml ([2]; 12 days, 0.5 PPM) of 139348 units/ml. For the same compound, the Algal units/ml ([2]; 12 days, 1.0 PPM) was 135217 units/ml, the Algal units/ml ([2]; 12 days, 5.0 PPM) was 92826 units/ml and the Algal units/ml ([2]; 12 days, 10.0 PPM) was 91204 units/ml. The Algal units/ml ([3]; 5 days, 0.5 PPM) was 10652 units/ml, the Algal units/ml ([3]; 5 days, 1.0 PPM) was 10435 units/ml and the Algal units/ml ([3]; 5 days, 5.0 PPM) was 12609 units/ml. It also gave an Algal units/ml ([3]; 5 days, 10.0 PPM) of 11957 units/ml, an Algal units/ml ([3]; 12 days, 0.5 PPM) of 47174 units/ml and an Algal units/ml ([3]; 12 days, 1.0 PPM) of 48696 units/ml. For the same compound, the Algal units/ml ([3]; 12 days, 5.0 PPM) was 46304 units/ml, the Algal units/ml ([3]; 12 days, 10.0 PPM) was 50217 units/ml and the “effect on algal growth” value ([4]; 5 and 12 days, all concentrations) was “some inhibitory effects”. The Algal units/ml ([4]; 5 days, 0.5 PPM) was 1087 units/ml, the Algal units/ml ([4]; 5 days, 1.0 PPM) was 2174 units/ml and the Algal units/ml ([4]; 5 days, 5.0 PPM) was 2714 units/ml. For the same compound, the Algal units/ml ([4]; 5 days, 10.0 PPM) was 2174 units/ml, the Algal units/ml ([4]; 12 days, 0.5 PPM) was 20435 units/ml and the Algal units/ml ([4]; 12 days, 1.0 PPM) was 7609 units/ml. The Algal units/ml ([4]; 12 days, 5.0 PPM) was 6739 units/ml and the Algal units/ml ([4]; 12 days, 10.0 PPM) was 6522 units/ml.
Work on `CCCCC/C=C\C/C=C\CCCCCCCC(=O)O` [Linoleic Acid, linoleic acid] yielded an Algal units/ml ([1]; 5 days, 0.5 PPM) of 8697 units/ml, an Algal units/ml ([1]; 5 days, 1.0 PPM) of 12174 units/ml and an Algal units/ml ([1]; 5 days, 5.0 PPM) of 10870 units/ml. It also gave an Algal units/ml ([1]; 5 days, 10.0 PPM) of 11304 units/ml, an Algal units/ml ([1]; 12 days, 0.5 PPM) of 195652 units/ml and an Algal units/ml ([1]; 12 days, 1.0 PPM) of 239130 units/ml. The Algal units/ml ([1]; 12 days, 5.0 PPM) was 304348 units/ml, the Algal units/ml ([1]; 12 days, 10.0 PPM) was 195652 units/ml and the inhibition of growth at 10 ppm ([2]; 120 h, 5 days, 10.0 PPM) was 38.1%. For the same compound, the Algal units/ml ([2]; 5 days, 0.5 PPM) was 45217 units/ml, the Algal units/ml ([2]; 5 days, 1.0 PPM) was 46957 units/ml and the Algal units/ml ([2]; 5 days, 5.0 PPM) was 32609 units/ml. The Algal units/ml ([2]; 5 days, 10.0 PPM) was 19783 units/ml, the “reduction in algal units/ml vs control” value ([2]; 5 days, 10.0 PPM) was 12,174 algal units/ml and the inhibition of growth at 10 ppm ([2]; 288 h, 12 days, 10 PPM) was 19.5%. The Algal units/ml ([2]; 12 days, 0.5 PPM) was 114565 units/ml, the Algal units/ml ([2]; 12 days, 1.0 PPM) was 135217 units/ml and the Algal units/ml ([2]; 12 days, 5.0 PPM) was 98261 units/ml. The Algal units/ml ([2]; 12 days, 10.0 PPM) was 95000 units/ml, the Algal units/ml ([3]; 5 days, 0.5 PPM) was 11087 units/ml and the Algal units/ml ([3]; 5 days, 1.0 PPM) was 12609 units/ml. The Algal units/ml ([3]; 5 days, 5.0 PPM) was 12391 units/ml, the “reduction of number of algal units/ml vs control” value ([3]; 5 days, 10 PPM) was 5,000 algal units/ml and the Algal units/ml ([3]; 5 days, 10.0 PPM) was 6522 units/ml. For the same compound, the Algal units/ml ([3]; 12 days, 0.5 PPM) was 45652 units/ml, the Algal units/ml ([3]; 12 days, 1.0 PPM) was 52174 units/ml and the Algal units/ml ([3]; 12 days, 5.0 PPM) was 50000 units/ml. It also gave an Algal units/ml ([3]; 12 days, 10.0 PPM) of 51087 units/ml, an inhibition of growth at 10 ppm ([3]; Chlamydomonas, 120 h, 5 days, 10 PPM, read-out: reduction of number of algal units/ml, % of the control) of 43.4% and an Algal units/ml ([4]; 5 days, 0.5 PPM) of 1087 units/ml. The “effect on algal growth” value ([4]; 5 days, 0.5 PPM) was “inhibition”, the Algal units/ml ([4]; 5 days, 1.0 PPM) was 3261 units/ml and the “effect on algal growth” value ([4]; 5 days, 1.0 PPM) was “stimulation”. The Algal units/ml ([4]; 5 days, 5.0 PPM) was 1087 units/ml, the Algal units/ml ([4]; 5 days, 10.0 PPM) was 217 units/ml and the Algal units/ml ([4]; 12 days, 0.5 PPM) was 14565 units/ml. It also gave an Algal units/ml ([4]; 12 days, 1.0 PPM) of 8261 units/ml, an Algal units/ml ([4]; 12 days, 5.0 PPM) of 4130 units/ml and an Algal units/ml ([4]; 12 days, 10.0 PPM) of 3969 units/ml. The “effect on algal growth” value ([4]; 12 days, all concentrations) was “inhibitory effect” and the inhibition of growth at 10 ppm ([4]; Dolichospermum flos-aquae, 120 h, 5 days, 10 PPM, read-out: reduction of algal units/ml of the control) was 90.9%.
